Laboratory results as given in patent US7871808B2, “Isolated microorganism having an ability to produce L-histidine” (priority 1999, dated 2011).
Counter-ions that a name gives are not always drawn.

Tested on: mutant strain H-9341
Assay: Comparative test of growth on agar plate culture medium containing primaquine (mutant strain)
Format: cell-based, Escherichia coli
Conditions: 150 mg/liter primaquine disodium salt in agar plate medium, 1 to 10 cells/cm^2, 33° C. for 4 days

COc1cc(NC(C)CCCN)c2ncccc2c1 (stereo not shown) [Primaquine disodium salt, primaquine disodium salt]
Growth or non-growth of the strain on agar plate medium: +
